In the NIST ThermoML archive (doi:10.1021/acs.jced.7b00106):
± gives the expanded uncertainty stated by the source.

Conditions: Liquid, Hot wire method

FC(F)(F)/C=C/Cl [(E)-1-chloro-3,3,3-trifluoroprop-1-ene]
thermal conductivity (242.05 K, 36072 kPa): 0.1119 ± 0.0047 W/m/K
thermal conductivity (242.06 K, 13440 kPa): 0.1056 ± 0.0033 W/m/K
thermal conductivity (242.08 K, 7089 kPa): 0.1037 ± 0.0036 W/m/K
thermal conductivity (242.09 K, 28062 kPa): 0.1106 ± 0.0034 W/m/K
thermal conductivity (242.11 K, 583 kPa): 0.101 ± 0.0031 W/m/K
thermal conductivity (242.13 K, 20421 kPa): 0.1074 ± 0.0033 W/m/K
thermal conductivity (242.18 K, 13439 kPa): 0.105 ± 0.0037 W/m/K
thermal conductivity (242.22 K, 7107 kPa): 0.1031 ± 0.0039 W/m/K
thermal conductivity (242.24 K, 585 kPa): 0.1007 ± 0.0034 W/m/K
thermal conductivity (242.32 K, 63843 kPa): 0.1195 ± 0.0059 W/m/K
thermal conductivity (242.33 K, 53263 kPa): 0.1172 ± 0.0038 W/m/K
thermal conductivity (242.34 K, 36064 kPa): 0.112 ± 0.0034 W/m/K
thermal conductivity (242.34 K, 43841 kPa): 0.1149 ± 0.0058 W/m/K
thermal conductivity (242.41 K, 28063 kPa): 0.1093 ± 0.0053 W/m/K
thermal conductivity (242.45 K, 20418 kPa): 0.1078 ± 0.0035 W/m/K
thermal conductivity (242.46 K, 53261 kPa): 0.1167 ± 0.0052 W/m/K
thermal conductivity (242.46 K, 63839 kPa): 0.1194 ± 0.0037 W/m/K
thermal conductivity (242.47 K, 43873 kPa): 0.1147 ± 0.0066 W/m/K
thermal conductivity (242.49 K, 36067 kPa): 0.1119 ± 0.0036 W/m/K
thermal conductivity (242.5 K, 13437 kPa): 0.1053 ± 0.0032 W/m/K
thermal conductivity (242.54 K, 7100 kPa): 0.1033 ± 0.005 W/m/K
thermal conductivity (242.55 K, 28067 kPa): 0.11 ± 0.006 W/m/K
thermal conductivity (242.56 K, 597 kPa): 0.101 ± 0.0031 W/m/K
thermal conductivity (242.59 K, 20435 kPa): 0.1072 ± 0.0043 W/m/K
thermal conductivity (242.65 K, 13436 kPa): 0.105 ± 0.0032 W/m/K
thermal conductivity (242.69 K, 7107 kPa): 0.1029 ± 0.0039 W/m/K
thermal conductivity (242.76 K, 53251 kPa): 0.1166 ± 0.0052 W/m/K
thermal conductivity (242.76 K, 63833 kPa): 0.1199 ± 0.0037 W/m/K
thermal conductivity (242.79 K, 43839 kPa): 0.115 ± 0.0038 W/m/K
thermal conductivity (242.81 K, 36066 kPa): 0.1121 ± 0.0035 W/m/K
thermal conductivity (242.88 K, 28066 kPa): 0.1102 ± 0.0039 W/m/K
thermal conductivity (242.91 K, 63824 kPa): 0.1193 ± 0.004 W/m/K
thermal conductivity (242.93 K, 20434 kPa): 0.1075 ± 0.0035 W/m/K
thermal conductivity (242.93 K, 53255 kPa): 0.1164 ± 0.004 W/m/K
thermal conductivity (242.96 K, 43854 kPa): 0.1143 ± 0.0049 W/m/K
thermal conductivity (242.98 K, 36047 kPa): 0.1118 ± 0.0039 W/m/K
thermal conductivity (242.99 K, 13448 kPa): 0.1056 ± 0.0034 W/m/K
thermal conductivity (243.04 K, 7102 kPa): 0.1029 ± 0.0034 W/m/K
thermal conductivity (243.05 K, 28059 kPa): 0.1096 ± 0.0045 W/m/K
thermal conductivity (243.08 K, 588 kPa): 0.101 ± 0.0039 W/m/K
thermal conductivity (243.11 K, 20431 kPa): 0.1071 ± 0.0034 W/m/K
thermal conductivity (243.18 K, 13440 kPa): 0.105 ± 0.0034 W/m/K
thermal conductivity (243.22 K, 7112 kPa): 0.1026 ± 0.0033 W/m/K
thermal conductivity (243.23 K, 63821 kPa): 0.1197 ± 0.0037 W/m/K
thermal conductivity (243.26 K, 584 kPa): 0.1004 ± 0.004 W/m/K
thermal conductivity (243.26 K, 53253 kPa): 0.1164 ± 0.0036 W/m/K
thermal conductivity (243.29 K, 43835 kPa): 0.1146 ± 0.0048 W/m/K
thermal conductivity (243.3 K, 36069 kPa): 0.1121 ± 0.0037 W/m/K
thermal conductivity (243.4 K, 28075 kPa): 0.1098 ± 0.0041 W/m/K
thermal conductivity (243.42 K, 63814 kPa): 0.1191 ± 0.0039 W/m/K
thermal conductivity (243.44 K, 53247 kPa): 0.1163 ± 0.0035 W/m/K
thermal conductivity (243.46 K, 20431 kPa): 0.1074 ± 0.0034 W/m/K
thermal conductivity (243.49 K, 43850 kPa): 0.114 ± 0.0039 W/m/K
thermal conductivity (243.51 K, 36041 kPa): 0.1117 ± 0.0034 W/m/K
thermal conductivity (243.53 K, 13443 kPa): 0.1053 ± 0.0061 W/m/K
thermal conductivity (243.58 K, 7097 kPa): 0.103 ± 0.0032 W/m/K
thermal conductivity (243.6 K, 28066 kPa): 0.1094 ± 0.0033 W/m/K
thermal conductivity (243.63 K, 586 kPa): 0.1005 ± 0.004 W/m/K
thermal conductivity (243.66 K, 20425 kPa): 0.107 ± 0.0036 W/m/K
thermal conductivity (243.74 K, 63809 kPa): 0.1193 ± 0.0054 W/m/K
thermal conductivity (243.78 K, 53242 kPa): 0.1168 ± 0.0036 W/m/K
thermal conductivity (243.8 K, 7115 kPa): 0.1027 ± 0.0033 W/m/K
thermal conductivity (243.83 K, 43827 kPa): 0.1143 ± 0.0056 W/m/K
thermal conductivity (243.85 K, 580 kPa): 0.1001 ± 0.0042 W/m/K
thermal conductivity (243.85 K, 36062 kPa): 0.1118 ± 0.0041 W/m/K
thermal conductivity (243.96 K, 28066 kPa): 0.1097 ± 0.0033 W/m/K
thermal conductivity (243.96 K, 63804 kPa): 0.119 ± 0.0036 W/m/K
thermal conductivity (244 K, 53243 kPa): 0.1163 ± 0.0035 W/m/K
thermal conductivity (244.02 K, 20445 kPa): 0.1073 ± 0.0048 W/m/K
thermal conductivity (244.06 K, 43851 kPa): 0.1139 ± 0.0036 W/m/K
thermal conductivity (244.09 K, 36043 kPa): 0.1116 ± 0.0034 W/m/K
thermal conductivity (244.19 K, 28067 kPa): 0.1093 ± 0.0033 W/m/K
